Columns and labels:
[1] = activity coefficient (dimensionless); of the first substance listed, at infinite dilution; xn = mol fraction of the nth substance listed; conditions: 101 kPa, Liquid, Chromatography, x1 = 0
[2] = 101.33 kPa, Liquid, Vibrating tube method

CCCCCC [hexane] + CCCCCC[N+]1(C)CCCCC1.O=S(=O)([N-]S(=O)(=O)C(F)(F)F)C(F)(F)F
[1]
Conditions	activity coefficient
308.15 K	7.67
318.15 K	7.4
328.15 K	7.07
338.15 K	6.85
348.15 K	6.67
358.15 K	6.37

O [water] + CCCCC[N+]1(C)CCCCC1.O=S(=O)([N-]S(=O)(=O)C(F)(F)F)C(F)(F)F
[1]
Conditions	activity coefficient
308.15 K	5.05
318.15 K	4.19
328.15 K	3.7
338.15 K	3.18
348.15 K	2.78
358.15 K	2.44

CCc1ccccc1 [ethylbenzene] + CCCCCC[N+]1(C)CCCCC1.O=S(=O)([N-]S(=O)(=O)C(F)(F)F)C(F)(F)F
[1]
Conditions	activity coefficient
308.15 K	0.864
318.15 K	0.894
328.15 K	0.909
338.15 K	0.934
348.15 K	0.957
358.15 K	0.969

CCCO [propan-1-ol] + CCCCCC[N+]1(C)CCCCC1.O=S(=O)([N-]S(=O)(=O)C(F)(F)F)C(F)(F)F
[1]
Conditions	activity coefficient
308.15 K	2.05
318.15 K	1.83
328.15 K	1.67
338.15 K	1.53
348.15 K	1.43
358.15 K	1.33

CCCCC(C)=O [2-hexanone] + CCCCCC[N+]1(C)CCCCC1.O=S(=O)([N-]S(=O)(=O)C(F)(F)F)C(F)(F)F
[1]
Conditions	activity coefficient
308.15 K	0.694
318.15 K	0.706
328.15 K	0.722
338.15 K	0.74
348.15 K	0.764
358.15 K	0.784

CO [methanol] + CCCCC[N+]1(C)CCCCC1.O=S(=O)([N-]S(=O)(=O)C(F)(F)F)C(F)(F)F
[1]
Conditions	activity coefficient
308.15 K	1.45
318.15 K	1.32
328.15 K	1.21
338.15 K	1.12
348.15 K	1.07
358.15 K	1

CCCCCCC [heptane] + CCCCCC[N+]1(C)CCCCC1.O=S(=O)([N-]S(=O)(=O)C(F)(F)F)C(F)(F)F
[1]
Conditions	activity coefficient
308.15 K	10.2
318.15 K	9.81
328.15 K	9.38
338.15 K	8.99
348.15 K	8.68
358.15 K	8.2

CCCCCC[N+]1(C)CCCCC1.O=S(=O)([N-]S(=O)(=O)C(F)(F)F)C(F)(F)F
[2]
Conditions	mass density [kg/m3]
293.15 K	1329.53
298.15 K	1325.41
303.15 K	1321.3
308.15 K	1317.2
313.15 K	1313.11
318.15 K	1309.04
323.15 K	1304.98
328.15 K	1300.93
333.15 K	1296.9
338.15 K	1292.88
343.15 K	1288.87
348.15 K	1284.87
353.15 K	1280.88
358.15 K	1276.91

c1ccccc1 [benzene] + CCCCCC[N+]1(C)CCCCC1.O=S(=O)([N-]S(=O)(=O)C(F)(F)F)C(F)(F)F
[1]
Conditions	activity coefficient
308.15 K	0.669
318.15 K	0.687
328.15 K	0.695
338.15 K	0.71
348.15 K	0.722
358.15 K	0.73

CCCOCCC [dipropyl ether] + CCCCC[N+]1(C)CCCCC1.O=S(=O)([N-]S(=O)(=O)C(F)(F)F)C(F)(F)F
[1]
Conditions	activity coefficient
308.15 K	4.17
318.15 K	4.13
328.15 K	4.05
338.15 K	4.02
348.15 K	3.98
358.15 K	3.96

CCC(C)(C)C [2,2-dimethylbutane] + CCCCCC[N+]1(C)CCCCC1.O=S(=O)([N-]S(=O)(=O)C(F)(F)F)C(F)(F)F
[1]
Conditions	activity coefficient
308.15 K	6.67
318.15 K	6.44
328.15 K	6.12
338.15 K	6
348.15 K	5.84
358.15 K	5.65

C1CCCCC1 [cyclohexane] + CCCCCC[N+]1(C)CCCCC1.O=S(=O)([N-]S(=O)(=O)C(F)(F)F)C(F)(F)F
[1]
Conditions	activity coefficient
308.15 K	4.99
318.15 K	4.8
328.15 K	4.6
338.15 K	4.43
348.15 K	4.28
358.15 K	4.06

CCCCO [butan-1-ol] + CCCCCC[N+]1(C)CCCCC1.O=S(=O)([N-]S(=O)(=O)C(F)(F)F)C(F)(F)F
[1]
Conditions	activity coefficient
308.15 K	2.4
318.15 K	2.13
328.15 K	1.93
338.15 K	1.76
348.15 K	1.64
358.15 K	1.52

C=CCCCC [hex-1-ene] + CCCCCC[N+]1(C)CCCCC1.O=S(=O)([N-]S(=O)(=O)C(F)(F)F)C(F)(F)F
[1]
Conditions	activity coefficient
308.15 K	4.53
318.15 K	4.45
328.15 K	4.34
338.15 K	4.28
348.15 K	4.15
358.15 K	4.06

C1=CCCCC1 [cyclohexene] + CCCCC[N+]1(C)CCCCC1.O=S(=O)([N-]S(=O)(=O)C(F)(F)F)C(F)(F)F
[1]
Conditions	activity coefficient
308.15 K	3.73
318.15 K	3.63
328.15 K	3.53
338.15 K	3.39
348.15 K	3.3
358.15 K	3.21

C=CCCCCC [1-heptene] + CCCCCC[N+]1(C)CCCCC1.O=S(=O)([N-]S(=O)(=O)C(F)(F)F)C(F)(F)F
[1]
Conditions	activity coefficient
308.15 K	5.89
318.15 K	5.81
328.15 K	5.69
338.15 K	5.59
348.15 K	5.45
358.15 K	5.35

CC(C)CC(C)(C)C [2,2,4-trimethylpentane] + CCCCC[N+]1(C)CCCCC1.O=S(=O)([N-]S(=O)(=O)C(F)(F)F)C(F)(F)F
[1]
Conditions	activity coefficient
308.15 K	13.4
318.15 K	12.5
328.15 K	11.8
338.15 K	11.4
348.15 K	10.9
358.15 K	10.6

CCCCCO [pentan-1-ol] + CCCCCC[N+]1(C)CCCCC1.O=S(=O)([N-]S(=O)(=O)C(F)(F)F)C(F)(F)F
[1]
Conditions	activity coefficient
308.15 K	2.44
318.15 K	2.23
328.15 K	2.05
338.15 K	1.92
348.15 K	1.8
358.15 K	1.71

CCCCC(C)=O [2-hexanone] + CCCCC[N+]1(C)CCCCC1.O=S(=O)([N-]S(=O)(=O)C(F)(F)F)C(F)(F)F
[1]
Conditions	activity coefficient
318.15 K	0.761
328.15 K	0.779
338.15 K	0.792
348.15 K	0.822
358.15 K	0.84

From the NIST ThermoML archive (doi:10.1016/j.jct.2013.01.005)
